Test results as given in ChEMBL document CHEMBL1201862, “PubChem BioAssay data set” (2004).
Counter-ions that a name gives are not always drawn. Calls of active or inactive are those of the source.

Columns and labels:
[1] = molecular target: SWI/SNF-related matrix-associated actin-dependent regulator of chromatin subfamily A member 2 (Homo sapiens, UniProt P51531); assay: Luminescence-based cell-based high throughput dose response assay to identify activators of the function of SWI/SNF related, matrix associated, actin dependent regulator of chromatin, subfamily a, member 2 (SMARCA2, BRM).; type: functional
SWI/SNF-related matrix-associated actin-dependent regulator of chromatin subfamily A member 2, sequence (P51531 whole entry): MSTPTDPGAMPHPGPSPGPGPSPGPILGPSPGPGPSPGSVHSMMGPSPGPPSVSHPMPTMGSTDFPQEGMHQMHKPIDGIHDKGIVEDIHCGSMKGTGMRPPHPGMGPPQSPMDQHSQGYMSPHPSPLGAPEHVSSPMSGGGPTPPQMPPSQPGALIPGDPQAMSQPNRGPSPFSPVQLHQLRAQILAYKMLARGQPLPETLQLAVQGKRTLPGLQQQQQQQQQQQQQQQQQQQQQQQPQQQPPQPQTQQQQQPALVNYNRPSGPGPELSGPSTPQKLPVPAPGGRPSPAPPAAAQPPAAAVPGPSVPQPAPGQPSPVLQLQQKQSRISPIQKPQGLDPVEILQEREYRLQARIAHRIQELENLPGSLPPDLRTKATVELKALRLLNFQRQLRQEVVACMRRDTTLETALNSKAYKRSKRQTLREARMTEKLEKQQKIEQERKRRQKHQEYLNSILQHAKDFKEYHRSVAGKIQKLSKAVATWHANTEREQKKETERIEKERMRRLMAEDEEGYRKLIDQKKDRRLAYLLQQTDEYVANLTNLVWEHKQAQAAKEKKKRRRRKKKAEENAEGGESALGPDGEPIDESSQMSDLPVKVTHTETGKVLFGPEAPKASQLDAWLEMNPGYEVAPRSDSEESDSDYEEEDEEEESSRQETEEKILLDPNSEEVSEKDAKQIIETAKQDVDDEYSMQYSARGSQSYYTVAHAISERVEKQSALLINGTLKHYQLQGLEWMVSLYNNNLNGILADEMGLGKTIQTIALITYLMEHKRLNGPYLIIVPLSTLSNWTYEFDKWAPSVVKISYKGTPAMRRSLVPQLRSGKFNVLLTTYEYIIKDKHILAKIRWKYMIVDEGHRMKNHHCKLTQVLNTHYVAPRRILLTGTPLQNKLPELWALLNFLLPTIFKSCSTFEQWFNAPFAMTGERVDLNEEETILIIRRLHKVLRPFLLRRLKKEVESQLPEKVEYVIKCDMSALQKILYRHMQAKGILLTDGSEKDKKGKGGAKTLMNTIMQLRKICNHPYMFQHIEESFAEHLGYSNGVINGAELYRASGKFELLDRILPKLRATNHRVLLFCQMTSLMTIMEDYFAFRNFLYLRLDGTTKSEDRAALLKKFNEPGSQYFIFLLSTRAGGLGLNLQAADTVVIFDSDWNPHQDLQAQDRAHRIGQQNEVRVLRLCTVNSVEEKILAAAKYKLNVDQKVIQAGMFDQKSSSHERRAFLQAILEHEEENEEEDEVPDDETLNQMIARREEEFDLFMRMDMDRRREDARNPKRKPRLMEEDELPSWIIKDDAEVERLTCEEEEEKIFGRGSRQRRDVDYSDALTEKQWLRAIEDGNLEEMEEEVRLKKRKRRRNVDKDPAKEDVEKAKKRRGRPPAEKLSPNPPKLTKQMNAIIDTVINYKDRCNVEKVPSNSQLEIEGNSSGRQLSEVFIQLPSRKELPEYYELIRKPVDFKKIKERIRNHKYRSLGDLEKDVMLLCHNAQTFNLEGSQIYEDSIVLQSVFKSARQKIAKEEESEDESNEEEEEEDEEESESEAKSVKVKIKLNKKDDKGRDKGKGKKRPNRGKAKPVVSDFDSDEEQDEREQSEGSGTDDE

[2] = Counterscreen for activators of the function of SWI/SNF related, matrix associated, actin dependent regulator of chromatin, subfamily a, member 2 (SMARCA2, BRM): Luminescence-based cell-based high throughput dose response assay to identify non-selective compounds using the VP16 reporter assay.; type: functional
Paired box protein Pax-8 = Paired box protein Pax-8 (Homo sapiens, UniProt Q06710); assay: inhibitors of PAX8-driven TPO luciferase reporter, dose response, RMG-I cells, cherry-pick (AID 687027); type: functional, cell-based;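 further: luciferase reporter driven by Pax8 target thyroperoxidase promoter measured by SteadyGlo luminescence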
Paired box protein Pax-8, sequence (Q06710 whole entry): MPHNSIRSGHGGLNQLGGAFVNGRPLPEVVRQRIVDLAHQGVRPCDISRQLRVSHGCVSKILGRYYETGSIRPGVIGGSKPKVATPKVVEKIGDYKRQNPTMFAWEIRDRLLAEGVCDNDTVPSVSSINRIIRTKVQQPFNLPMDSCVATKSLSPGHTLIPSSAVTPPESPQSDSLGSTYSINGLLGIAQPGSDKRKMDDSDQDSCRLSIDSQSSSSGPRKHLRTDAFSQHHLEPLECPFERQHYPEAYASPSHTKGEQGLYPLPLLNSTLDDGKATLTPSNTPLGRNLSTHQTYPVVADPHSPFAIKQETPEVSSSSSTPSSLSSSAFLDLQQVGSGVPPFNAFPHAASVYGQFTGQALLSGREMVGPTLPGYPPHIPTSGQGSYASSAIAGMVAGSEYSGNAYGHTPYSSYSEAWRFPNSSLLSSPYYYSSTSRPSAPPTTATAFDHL

[3] = non-specific cell cytotoxicity, dose response, cytotoxicity control for PAX8 inhibitor project, plate reader, dry powder samples (AID 743021); type: functional, cell-based
Protein skinhead-1 = molecular target: T1, Protein skinhead-1 (Caenorhabditis elegans, UniProt P34707); type: functional
T1 sequence (P34707 whole entry): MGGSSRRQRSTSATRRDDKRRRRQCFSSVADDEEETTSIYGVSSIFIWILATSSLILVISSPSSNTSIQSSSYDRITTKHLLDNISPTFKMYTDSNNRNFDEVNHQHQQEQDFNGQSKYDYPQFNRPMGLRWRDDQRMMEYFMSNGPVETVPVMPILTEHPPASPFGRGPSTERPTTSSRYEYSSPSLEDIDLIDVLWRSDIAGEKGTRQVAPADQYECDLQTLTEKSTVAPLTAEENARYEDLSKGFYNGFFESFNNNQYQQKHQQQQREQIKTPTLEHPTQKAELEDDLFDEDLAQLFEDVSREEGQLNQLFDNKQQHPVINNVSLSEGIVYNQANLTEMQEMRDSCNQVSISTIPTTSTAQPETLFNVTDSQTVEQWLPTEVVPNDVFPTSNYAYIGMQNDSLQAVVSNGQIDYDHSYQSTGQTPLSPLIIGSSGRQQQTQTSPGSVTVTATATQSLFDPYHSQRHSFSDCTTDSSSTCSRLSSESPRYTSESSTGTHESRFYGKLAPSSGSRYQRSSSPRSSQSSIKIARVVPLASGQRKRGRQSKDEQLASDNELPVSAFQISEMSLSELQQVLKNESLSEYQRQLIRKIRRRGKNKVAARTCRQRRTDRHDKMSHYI

HEK293 = assay: inhibitors of LMP1-driven NF-kB reporter, dose response, cell-based, HEK293, luciferase, cherry-pick (AID 588343); type: functional; settings: Homo sapiens
[4] = cytotoxicity in OVCAR8 ovarian cancer cells, dose response, PAX8 project, cell-based, plate reader, dry powder samples (AID 743197); type: functional; settings: OVCAR-8
[5] = NIH:OVCAR-3 ovarian cancer cell cytotoxicity, dose response, PAX8 inhibitor project, plate reader, dry powder samples (AID 743044); type: functional, cell-based
[6] = IGROV1 ovarian cancer cell cytotoxicity, dose response, PAX8 inhibitor project, plate reader, dry powder samples (AID 743043); type: functional, cell-based; settings: IGROV-1
Kallikrein-7 = Kallikrein-7 (Homo sapiens, UniProt P49862); assay: Fluorescence Intensity-based biochemical primary high throughput dose response assay to identify activators of kallikrein-7 (K7) zymogen.
Kallikrein-7, sequence (P49862 whole entry): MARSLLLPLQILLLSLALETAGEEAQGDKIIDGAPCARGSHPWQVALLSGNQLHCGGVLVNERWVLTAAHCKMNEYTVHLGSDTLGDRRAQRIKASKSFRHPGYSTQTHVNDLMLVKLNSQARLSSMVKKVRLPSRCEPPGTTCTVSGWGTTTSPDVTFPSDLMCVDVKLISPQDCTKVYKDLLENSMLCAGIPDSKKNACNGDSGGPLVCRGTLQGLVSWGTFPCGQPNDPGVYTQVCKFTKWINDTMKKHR

[7] = molecular target: Voltage-gated inwardly rectifying potassium channel KCNH2 (Homo sapiens, UniProt Q12809); settings: Potency;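 further: confirmatory quantitative high-throughput screen measuring inhibition of hERG channel activity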
Voltage-gated inwardly rectifying potassium channel KCNH2, sequence (Q12809 whole entry): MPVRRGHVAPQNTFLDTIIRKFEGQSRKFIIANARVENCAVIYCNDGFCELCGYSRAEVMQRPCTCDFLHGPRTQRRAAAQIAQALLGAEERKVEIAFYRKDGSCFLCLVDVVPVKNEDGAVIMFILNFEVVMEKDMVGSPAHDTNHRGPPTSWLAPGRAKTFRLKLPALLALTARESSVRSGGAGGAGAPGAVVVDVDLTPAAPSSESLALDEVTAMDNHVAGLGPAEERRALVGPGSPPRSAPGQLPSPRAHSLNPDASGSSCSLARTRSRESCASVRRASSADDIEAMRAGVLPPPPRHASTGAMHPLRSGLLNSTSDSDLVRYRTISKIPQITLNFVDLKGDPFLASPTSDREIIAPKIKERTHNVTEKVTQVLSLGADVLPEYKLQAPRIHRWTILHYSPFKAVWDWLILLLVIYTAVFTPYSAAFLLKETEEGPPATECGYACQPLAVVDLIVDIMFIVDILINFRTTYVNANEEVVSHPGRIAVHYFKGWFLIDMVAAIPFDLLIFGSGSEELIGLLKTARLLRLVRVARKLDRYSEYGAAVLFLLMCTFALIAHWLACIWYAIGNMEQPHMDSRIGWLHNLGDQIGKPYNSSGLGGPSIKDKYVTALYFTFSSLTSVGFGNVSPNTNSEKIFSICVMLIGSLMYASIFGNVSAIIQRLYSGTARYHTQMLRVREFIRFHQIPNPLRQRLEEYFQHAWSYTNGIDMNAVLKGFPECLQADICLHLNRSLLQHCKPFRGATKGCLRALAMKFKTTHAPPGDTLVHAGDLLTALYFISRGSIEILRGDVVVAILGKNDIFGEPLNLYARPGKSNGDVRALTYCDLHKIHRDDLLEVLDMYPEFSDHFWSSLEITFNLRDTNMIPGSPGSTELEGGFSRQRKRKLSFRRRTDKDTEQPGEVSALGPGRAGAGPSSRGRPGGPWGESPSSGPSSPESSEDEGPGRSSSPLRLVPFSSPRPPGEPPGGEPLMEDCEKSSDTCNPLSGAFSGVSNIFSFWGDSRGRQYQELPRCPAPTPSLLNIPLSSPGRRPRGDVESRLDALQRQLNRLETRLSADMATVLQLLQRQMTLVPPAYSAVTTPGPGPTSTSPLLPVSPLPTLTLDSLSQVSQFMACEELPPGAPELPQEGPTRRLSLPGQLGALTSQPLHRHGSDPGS

[8] = cytotoxicity in HEK-293T cells, dose response, cytotoxicity control for TCR NF-kB inhibitor project, luminescence, T-cell screen hits (AID 489026); type: functional, cell-based;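 further: cells exposed to compound about 14 hours before the viability readout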
[9] = P. falciparum 3D7-ScDHODH growth inhibitors, dose response, SYBR Green, dry powder samples (AID 1159570); type: functional, cell-based;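 further: parasite growth measured after 72 hours of compound exposure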
[10] = P. falciparum Dd2 growth inhibitors, dose response, SYBR Green, cherry-picked samples (AID 1159567); type: functional, cell-based
[11] = HepG2 cell cytotoxicity, dose response, cytotoxicity control, plate reader, dry powder samples (AID 1159569); type: functional, cell-based;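 further: inhibitor potency with signal falling toward the positive control level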
[12] = P. falciparum ATP4 D1247Y mutant growth inhibitors, dose response, NITD609-resistant line, SYBR Green, dry powder (AID 1159571); type: functional, cell-based;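 further: parasites synchronized at ring stage by sorbitol before testing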
[13] = P. falciparum Dd2 growth inhibitors, dose response, SYBR Green, dry powder samples (AID 1159566); type: functional, cell-based;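 further: potency for growth inhibition with lower SYBR green DNA signal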
[14] = P. falciparum Dd2 growth inhibitors, dose response, SYBR Green, dry powder samples, set 9 (AID 1159568); type: functional, cell-based
[15] = Vero E6 cell cytotoxicity, dose response, cytotoxicity control for non-replicating M. tuberculosis project, secondary assay (AID 492998); type: functional, VeroE6; settings: Vero C1008
[16] = molecular target: T2, Short transient receptor potential channel 4 (Mus musculus, UniProt Q9QUQ5); assay: mouse TRPC4 channel activators, dose response, cell-based, HEK293 TRPC4/mu-opioid, Fluo-4 calcium (AID 434937); type: functional
T2 sequence (Q9QUQ5 whole entry): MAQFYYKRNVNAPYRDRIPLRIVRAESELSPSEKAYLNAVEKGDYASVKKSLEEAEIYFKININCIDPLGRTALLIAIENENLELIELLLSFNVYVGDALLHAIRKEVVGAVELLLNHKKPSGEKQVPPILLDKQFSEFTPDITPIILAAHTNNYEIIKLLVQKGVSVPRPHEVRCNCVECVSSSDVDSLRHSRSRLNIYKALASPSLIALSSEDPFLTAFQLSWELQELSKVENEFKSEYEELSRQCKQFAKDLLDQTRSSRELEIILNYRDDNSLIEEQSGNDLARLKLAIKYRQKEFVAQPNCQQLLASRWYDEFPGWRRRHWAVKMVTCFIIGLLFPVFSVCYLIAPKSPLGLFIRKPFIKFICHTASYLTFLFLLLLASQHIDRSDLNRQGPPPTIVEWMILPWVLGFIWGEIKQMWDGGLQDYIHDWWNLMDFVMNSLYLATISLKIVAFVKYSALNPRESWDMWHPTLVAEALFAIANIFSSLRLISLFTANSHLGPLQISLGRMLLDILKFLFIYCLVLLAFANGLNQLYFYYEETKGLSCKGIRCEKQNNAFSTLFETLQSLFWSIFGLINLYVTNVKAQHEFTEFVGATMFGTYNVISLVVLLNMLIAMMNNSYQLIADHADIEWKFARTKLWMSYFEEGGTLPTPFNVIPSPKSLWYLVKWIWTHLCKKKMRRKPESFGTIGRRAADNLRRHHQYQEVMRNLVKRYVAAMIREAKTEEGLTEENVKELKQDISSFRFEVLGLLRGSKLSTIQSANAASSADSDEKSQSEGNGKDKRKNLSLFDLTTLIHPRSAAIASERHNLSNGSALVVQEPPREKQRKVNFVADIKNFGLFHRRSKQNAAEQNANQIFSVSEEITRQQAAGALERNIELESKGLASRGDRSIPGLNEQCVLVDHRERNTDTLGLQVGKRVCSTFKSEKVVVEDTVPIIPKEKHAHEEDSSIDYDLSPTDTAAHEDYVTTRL

[17] = THP-1 cell cytotoxicity, dose response, cytotoxicity control for non-replicating M. tuberculosis project (AID 489025); type: functional
cells = type: functional
[18] = HepG2 cell cytotoxicity, dose response, cytotoxicity control for non-replicating M. tuberculosis project (AID 489018); type: functional; settings: Mycobacterium tuberculosis
[19] = ZM109 Env clade C HIV-1 fusion inhibitors, dose response, HeLa effector, CEM target cells, luciferase, cherry-pick (AID 652058); type: functional, cell-based
[20] = molecular target: T3, Heat shock factor protein 1 (Mus musculus, UniProt P38532); assay: HSF1 potentiators in luciferase reporter cells, confirmation, cell-based, NIH3T3, luminescence, dose retest (AID 435004); type: functional;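 further: stress induced by proteasome inhibitor MG132 added 30 min after compound; luciferase reporter driven by HSF1 response element in NIH3T3 cells; actives raise luminescence as potentiators of the MG132 stress response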
T3 sequence (P38532 whole entry): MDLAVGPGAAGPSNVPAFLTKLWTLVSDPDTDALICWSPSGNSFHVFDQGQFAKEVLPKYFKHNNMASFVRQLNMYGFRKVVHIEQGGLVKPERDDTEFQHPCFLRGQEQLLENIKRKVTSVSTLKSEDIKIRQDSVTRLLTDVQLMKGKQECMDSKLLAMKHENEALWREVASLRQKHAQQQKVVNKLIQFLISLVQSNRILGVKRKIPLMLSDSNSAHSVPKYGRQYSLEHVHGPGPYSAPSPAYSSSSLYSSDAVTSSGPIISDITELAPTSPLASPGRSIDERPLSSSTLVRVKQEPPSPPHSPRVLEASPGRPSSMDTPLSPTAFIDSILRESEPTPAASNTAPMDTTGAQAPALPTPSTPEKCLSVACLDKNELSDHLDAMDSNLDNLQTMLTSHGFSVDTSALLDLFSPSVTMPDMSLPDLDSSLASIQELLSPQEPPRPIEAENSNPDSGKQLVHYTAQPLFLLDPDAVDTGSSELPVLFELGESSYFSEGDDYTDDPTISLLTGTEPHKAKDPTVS

[21] = molecular target: T4, Microphthalmia-associated transcription factor (Homo sapiens, UniProt O75030); assay: TRPM1 promoter luciferase signal decrease, dose response, MITF inhibitor project, cell-based, SK-MEL-5, cherry-picked, set 3 (AID 493073); type: functional
T4 sequence (O75030 whole entry): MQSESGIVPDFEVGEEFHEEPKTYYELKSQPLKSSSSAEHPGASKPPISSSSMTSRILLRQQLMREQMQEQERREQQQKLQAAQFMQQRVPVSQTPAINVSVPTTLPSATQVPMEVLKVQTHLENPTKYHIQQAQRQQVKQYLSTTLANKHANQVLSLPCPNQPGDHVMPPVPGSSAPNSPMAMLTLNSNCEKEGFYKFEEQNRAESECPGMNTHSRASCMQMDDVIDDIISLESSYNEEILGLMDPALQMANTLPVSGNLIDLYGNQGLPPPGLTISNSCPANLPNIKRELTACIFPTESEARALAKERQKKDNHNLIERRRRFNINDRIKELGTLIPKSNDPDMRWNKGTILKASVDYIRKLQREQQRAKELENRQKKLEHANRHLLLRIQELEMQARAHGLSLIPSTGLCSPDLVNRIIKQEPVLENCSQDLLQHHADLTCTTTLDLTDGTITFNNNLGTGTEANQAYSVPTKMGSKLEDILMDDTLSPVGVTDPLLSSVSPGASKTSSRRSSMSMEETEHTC

Clc1ccc(CO/N=C2\CCCc3nonc32)cc1
EC50 [1]: > 91.2 µM (inactive) | EC50 [2]: > 91.2 µM (inactive)

O=c1cc(-c2ccccc2)oc2ccc3ccccc3c12 [BETA-NAPHTHOFLAVONE]
AC50 (Paired box protein Pax-8): 5.9 µM (active) | AC50 [3]: 29.2 µM (active) | IC50 (Protein skinhead-1): > 100 µM (inactive) | AC50 (HEK293): 0.646 µM (active)

Cc1ccc(S(=O)(=O)Nc2ccc3c(c2)C(=O)N([C@@H](C)CO)C[C@@H](C)[C@H](CN(C)Cc2ccc(C(F)(F)F)cc2)OCCCC[C@@H](C)O3)cc1
AC50 (Paired box protein Pax-8): 8.98 µM (active) | AC50 [3]: 43 µM (active) | AC50 [4]: > 70 µM (inactive) | AC50 [5]: 17.9 µM (active) | AC50 [6]: 36.9 µM (active)

CCOC(=O)N1CCC2(CC1)NC(=O)c1ccccc1N2
EC50 (Kallikrein-7): > 69.5 µM (inactive)

CN(C)CCC(c1ccccc1)c1ccccn1 (stereo not drawn) [PHENIRAMINE MALEATE]
AC50 [7]: 15.8 µM (inconclusive)

Cc1ccc(O)c(NC(=O)c2cc(-c3ccccc3)on2)c1
IC50 [8]: > 80 µM (inactive)

COc1ccc(-c2ccc3c(c2)[C@H]2[C@H](CCN2C(=O)C2CCCC2)[C@H](CO)N3C)cc1
AC50 [9]: 2.27 µM (active) | AC50 [10]: 1.87 µM (active) | AC50 [11]: 16.1 µM (active) | AC50 [12]: 1.97 µM (active) | AC50 [13]: 1.42 µM (active)

COc1ccc(NC(=O)/C=C/c2ccc(Cl)cc2)cc1
AC50 [7]: 25.1 µM (inconclusive)

CC(C)NC(=O)N1[C@H](C#N)[C@H](c2ccc(C#CC3CCCCC3)cc2)[C@@H]1CO
AC50 [9]: 1.58 µM (active) | AC50 [10]: 0.99 µM (active) | AC50 [11]: 28.6 µM (active) | AC50 [12]: 0.676 µM (active) | AC50 [13]: 0.495 µM (active) | AC50 [14]: 0.148 µM (active)

Cc1c(C2(O)CCCCC2)[nH]c2cnccc12
EC50 (Kallikrein-7): > 69.5 µM (inactive)

Nc1c(Cl)cc(Cl)cc1C(=O)OCC(=O)N1CCCC1
EC50 (Kallikrein-7): > 69.5 µM (inactive)

C[C@H]1CN([C@@H](C)CO)C(=O)c2cc(/C=C/c3ccccc3)cnc2O[C@@H]1CN(C)C(=O)C1CCCCC1
AC50 [9]: 0.905 µM (active) | AC50 [10]: 0.54 µM (active) | AC50 [11]: > 100 µM (inactive) | AC50 [12]: 0.464 µM (active) | AC50 [13]: 0.291 µM (active) | AC50 [14]: 0.082 µM (active)

Cc1ccc(-n2cc(CNCCc3nc(C)c[nH]3)c(-c3ccc(F)cc3)n2)cc1
CC50 [15]: 17.4 µM (active) | EC50 [16]: 6.68 µM (active) | CC50 [17]: 24.1 µM (active) | IC50 (cells): 11.5 µM (active) | CC50 [18]: 16.7 µM (active)

O=C(Nc1ccc(F)cc1)Nc1ccc2c(c1)[C@@H]1C[C@H](CC(=O)N3CCCCC3)O[C@@H](CO)[C@@H]1O2
AC50 [19]: 35 µM (active)

Oc1nc(-c2ccccc2Cl)c2cc(F)ccc2n1
EC50 (Kallikrein-7): > 69.5 µM (inactive)

Cc1n[nH]c(SCC(=O)N2CCc3ccccc32)n1
EC50 [1]: > 91 µM (inactive) | EC50 [2]: > 91 µM (inactive)

COc1ccc(C(CCNCc2ccccc2)c2ccc(F)cc2)cc1 (stereo not drawn)
CC50 [15]: 18 µM (active) | CC50 [17]: 11.7 µM (active) | IC50 (cells): 18.7 µM (active) | CC50 [18]: 14.6 µM (active) | EC50 [20]: > 260 µM (inactive)

Cc1onc(-c2ccccc2)c1C(=O)N/N=C/c1ccc([N+](=O)[O-])s1
CC50 [15]: 11.4 µM (active) | CC50 [17]: 13.5 µM (active) | AC50 [21]: 5.35 µM (active) | IC50 (cells): 14.9 µM (active) | CC50 [18]: 18.8 µM (active)
